Reference: the NIST ThermoML archive (doi:10.1016/j.fluid.2005.06.019)
Numbers after ± are expanded uncertainties.

Assays:
[1] = refractive index (Na D-line) (dimensionless); conditions: 298.15 K; 101.33 kPa; Liquid; Standard Abbe refractometry
[2] = Liquid; for mass density: 101.33 kPa

CCCCCCO [hexan-1-ol]
Conditions | refractive index
[1] | 1.4162 ± 0.0008

[2]
Conditions | mass density [kg/m3] | vapor or sublimation pressure [kPa]
298.15 K | 814.85 ± 0.68 | –
356.39 K | – | 5 ± 0.2
364.42 K | – | 7.5 ± 0.2
368.04 K | – | 8.9 ± 0.3
372.23 K | – | 10.9 ± 0.3
376.68 K | – | 13.4 ± 0.4
379.61 K | – | 15.3 ± 0.4
384.92 K | – | 19.3 ± 0.5
384.93 K | – | 19.3 ± 0.5
390.31 K | – | 24.2 ± 0.5
394.34 K | – | 28.5 ± 0.6
398.14 K | – | 33.1 ± 0.7
401.57 K | – | 37.8 ± 0.8
404.56 K | – | 42.3 ± 0.8
407.43 K | – | 47.1 ± 0.9
410.27 K | – | 52.2 ± 1
412.75 K | – | 57 ± 1
414.93 K | – | 61.5 ± 1.1
417.18 K | – | 66.4 ± 1.2
417.28 K | – | 66.7 ± 1.2
419.52 K | – | 71.9 ± 1.2
421.96 K | – | 78 ± 1.3
424.54 K | – | 84.8 ± 1.4
426.31 K | – | 89.8 ± 1.5
428.2 K | – | 95.3 ± 1.5
429.97 K | – | 100.8 ± 1.6
430 K | – | 101.5 ± 1.8
430.06 K | – | 101.3 ± 1.6
430.26 K | – | 101.7 ± 1.6

CC(=O)OCC(C)C [2-methylpropyl ethanoate]
Conditions | refractive index
[1] | 1.3876 ± 0.0008

[2]
Conditions | mass density [kg/m3] | vapor or sublimation pressure [kPa]
293.15 K | 866.12 ± 0.62 | –
389.9 K | – | 101.3 ± 0.3

CC(C)CO [2-methyl-1-propanol]
Conditions | refractive index
[1] | 1.3937 ± 0.0007

[2]
Conditions | mass density [kg/m3] | vapor or sublimation pressure [kPa]
298.15 K | 797.83 ± 0.61 | –
381.09 K | – | 101.3 ± 0.3
